# Measurements reported in patent US8802597B2, “Herbicidal pyrimidines” (E I du Pont de Nemours and Company, priority 2003, dated 2014).
# Like-named read-outs stand apart in the source and are kept apart here.
# Assays:
# Assay type in all cases: in vivo
# [1] = system: Surinam grass (Brachiaria decumbens); assay: Test C pre/postemergence; details: Urochloa decumbens; for pest or weed control at 16 g/ha: 16 g ai/ha; for pest or weed control at 31 g/ha: 31 g ai/ha; for pest or weed control at 62 g/ha: 62 g ai/ha
# Procedure, shortened: (§1)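 Applications: preemergence onto seeded soil and postemergence onto 1- to 4-leaf seedlings, compound carried in non-phytotoxic solvent plus surfactant. Kept in greenhouse 12 to 14 days. Scored visually relative to untreated controls, 0 (no effect) to 100 (complete control).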
# corn (Zea mays) = assay: Test C pre/postemergence; details: Zea mays; for Corn plant response rating (crop injury, 0 = no effect, 100 = complete kill) at 16 g/ha: 16 g ai/ha; for Corn plant response rating (crop injury, 0 = no effect, 100 = complete kill) at 31 g/ha: 31 g ai/ha; for Corn plant response rating (crop injury, 0 = no effect, 100 = complete kill) at 62 g/ha: 62 g ai/ha; for Corn plant response rating (crop injury, 0 = no effect, 100 = complete kill) at 125 g/ha: 125 g ai/ha
# Procedure, shortened: as §1
# [2] = system: goosegrass (Eleusine indica); assay: Test C pre/postemergence; details: Eleusine indica; for pest or weed control at 16 g/ha: 16 g ai/ha; for pest or weed control at 31 g/ha: 31 g ai/ha; for pest or weed control at 62 g/ha: 62 g ai/ha; for pest or weed control at 125 g/ha: 125 g ai/ha
# Procedure, shortened: as §1
# [3] = system: Italian ryegrass (Lolium multiflorum); assay: Test C postemergence
# Procedure, shortened: as §1
# [4] = system: blackgrass (Alopecurus myosuroides); assay: Test C postemergence
# Procedure, shortened: as §1
# [5] = system: canarygrass (Phalaris minor); assay: Test C postemergence
# Procedure, shortened: as §1
# [6] = system: downy brome (Bromus tectorum); assay: Test C postemergence
# Procedure, shortened: as §1
# [7] = system: green foxtail (Setaria viridis); assay: Test C postemergence
# Procedure, shortened: as §1
# [8] = system: wheat (Triticum aestivum); assay: Test C postemergence
# Procedure, shortened: as §1
# wild oat (Avena fatua) = assay: Test C postemergence
# Procedure, shortened: as §1
# [9] = system: windgrass (Apera spica-venti); assay: Test C postemergence
# Procedure, shortened: as §1
# [10] = system: winter barley (Hordeum vulgare); assay: Test C postemergence
# Procedure, shortened: as §1
# [11] = system: purple redstem (Ammannia coccinea); assay: Test E flooded paddy water application; details: Flood, 21 days, scale 0 to 100 (0 no effect, 100 complete control)
# Procedure, shortened: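 Response scored visually on a 0–100 scale (100 = complete control) at 21 days against untreated pots. Treatment was into paddy water 3 cm deep over silt loam, with plants at the 2.0–2.5-leaf stage, grown under 16-h light at 29.5/26.7 °C day/night.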
# [12] = post-emergence, Postemergence, read-out: Plant response rating (scale of 0 to 100), Surinam Grass
# [13] = pre-emergence, Preemergence, scale 0 to 100, 0 no effect, 100 complete control, read-out: Plant response rating, Surinam Grass
# [14] = post-emergence, Postemergence, read-out: Plant response rating (scale of 0 to 100), Corn
# [15] = pre-emergence, Preemergence, scale 0 to 100, 0 no effect, 100 complete control, read-out: Plant response rating, Corn
# [16] = post-emergence, Postemergence, read-out: Plant response rating (scale of 0 to 100), Goosegrass
# [17] = pre-emergence, Preemergence, scale 0 to 100, 0 no effect, 100 complete control, read-out: Plant response rating, Goosegrass
structure (smiles),measurement,setting,value
"Nc1nc(-c2ccc(Cl)cc2)nc(C(=O)O)c1Cl [Compound 65, 6-amino-5-chloro-2-(4-chlorophenyl)-4-pyrimidinecarboxylic acid]",pest or weed control at 125 g/ha,"[1]; post-emergence, Postemergence, 125 g ai/ha, scale 0 to 100 (0 no effect, 100 complete control), read-out: Surinam Grass plant response rating",80%
same,pest or weed control at 16 g/ha,[1]; [12],60%
same,pest or weed control at 31 g/ha,[1]; [12],80%
same,pest or weed control at 62 g/ha,[1]; [12],80%
same,pest or weed control at 16 g/ha,[1]; [13],0%
same,pest or weed control at 31 g/ha,[1]; [13],40%
same,pest or weed control at 62 g/ha,[1]; [13],80%
same,"Corn plant response rating (crop injury, 0 = no effect, 100 = complete kill) at 16 g/ha",corn (Zea mays); [14],5%
same,"Corn plant response rating (crop injury, 0 = no effect, 100 = complete kill) at 31 g/ha",corn (Zea mays); [14],90%
same,"Corn plant response rating (crop injury, 0 = no effect, 100 = complete kill) at 62 g/ha",corn (Zea mays); [14],90%
same,"Corn plant response rating (crop injury, 0 = no effect, 100 = complete kill) at 125 g/ha","corn (Zea mays); post-emergence, Postemergence, scale 0 to 100 (0 no effect, 100 complete control), read-out: Corn plant response rating",90%
same,"Corn plant response rating (crop injury, 0 = no effect, 100 = complete kill) at 16 g/ha",corn (Zea mays); [15],0%
same,"Corn plant response rating (crop injury, 0 = no effect, 100 = complete kill) at 31 g/ha",corn (Zea mays); [15],0%
same,"Corn plant response rating (crop injury, 0 = no effect, 100 = complete kill) at 62 g/ha",corn (Zea mays); [15],0%
same,"Corn plant response rating (crop injury, 0 = no effect, 100 = complete kill) at 125 g/ha","corn (Zea mays); pre-emergence, Preemergence, scale 0 to 100, read-out: Plant response rating, Corn",30%
same,pest or weed control at 16 g/ha,[2]; [16],50%
same,pest or weed control at 31 g/ha,[2]; [16],50%
same,pest or weed control at 62 g/ha,[2]; [16],70%
same,pest or weed control at 125 g/ha,"[2]; post-emergence, Postemergence, scale 0 to 100 (0 no effect, 100 complete control), read-out: Goosegrass plant response rating",70%
same,pest or weed control at 16 g/ha,[2]; [17],0%
same,pest or weed control at 31 g/ha,[2]; [17],0%
same,pest or weed control at 62 g/ha,[2]; [17],0%
same,pest or weed control at 125 g/ha,"[2]; pre-emergence, Preemergence, scale 0 to 100, read-out: Plant response rating, Goosegrass",50%
same,"Plant response rating (scale of 0 to 100), Ryegrass, Italian",[3]; 16 g ai/ha,10
same,"Plant response rating (scale of 0 to 100), Ryegrass, Italian",[3]; 31 g ai/ha,50
same,"Plant response rating (scale of 0 to 100), Ryegrass, Italian",[3]; 62 g ai/ha,55
same,pest or weed control at 125 g/ha,"[3]; Lolium multiflorum, post-emergence, 125 g ai/ha, scale 0 to 100 (0 no effect, 100 complete control), read-out: Ryegrass, Italian plant response rating",60%
same,"Plant response rating (scale of 0 to 100), Blackgrass",[4]; 16 g ai/ha,50
same,"Plant response rating (scale of 0 to 100), Blackgrass",[4]; 31 g ai/ha,60
same,"Plant response rating (scale of 0 to 100), Blackgrass",[4]; 62 g ai/ha,65
same,pest or weed control at 125 g/ha,"[4]; Alopecurus myosuroides, post-emergence, 125 g ai/ha, scale 0 to 100 (0 no effect, 100 complete control), read-out: Blackgrass plant response rating",65%
same,"Plant response rating (scale of 0 to 100), Canarygrass",[5]; 16 g ai/ha,30
same,"Plant response rating (scale of 0 to 100), Canarygrass",[5]; 31 g ai/ha,30
same,"Plant response rating (scale of 0 to 100), Canarygrass",[5]; 62 g ai/ha,35
same,pest or weed control at 125 g/ha,"[5]; Phalaris minor, post-emergence, 125 g ai/ha, scale 0 to 100 (0 no effect, 100 complete control), read-out: Canarygrass plant response rating",45%
same,"Plant response rating (scale of 0 to 100), Bromegrass, Downy",[6]; 16 g ai/ha,40
same,"Plant response rating (scale of 0 to 100), Bromegrass, Downy",[6]; 31 g ai/ha,50
same,"Plant response rating (scale of 0 to 100), Bromegrass, Downy",[6]; 62 g ai/ha,50
same,pest or weed control at 125 g/ha,"[6]; Bromus tectorum, post-emergence, 125 g ai/ha, scale 0 to 100 (0 no effect, 100 complete control), read-out: Bromegrass, Downy plant response rating",55%
same,"Plant response rating (scale of 0 to 100), Foxtail, Green",[7]; 16 g ai/ha,50
same,"Plant response rating (scale of 0 to 100), Foxtail, Green",[7]; 31 g ai/ha,55
same,"Plant response rating (scale of 0 to 100), Foxtail, Green",[7]; 62 g ai/ha,60
same,pest or weed control at 125 g/ha,"[7]; Setaria viridis, post-emergence, 125 g ai/ha, scale 0 to 100 (0 no effect, 100 complete control), read-out: Foxtail, Green plant response rating",70%
same,"Plant response rating (scale of 0 to 100), Wheat",[8]; 16 g ai/ha,40
same,"Plant response rating (scale of 0 to 100), Wheat",[8]; 31 g ai/ha,40
same,"Plant response rating (scale of 0 to 100), Wheat",[8]; 62 g ai/ha,45
same,plant injury at 125 g/ha,"[8]; Triticum aestivum, post-emergence, 125 g ai/ha, scale 0 to 100 (0 no effect, 100 complete control), read-out: Wheat plant response rating",45%
same,"Plant response rating (scale of 0 to 100), Oat, Wild",wild oat (Avena fatua); 16 g ai/ha,5
same,"Plant response rating (scale of 0 to 100), Oat, Wild",wild oat (Avena fatua); 31 g ai/ha,15
same,"Plant response rating (scale of 0 to 100), Oat, Wild",wild oat (Avena fatua); 62 g ai/ha,20
same,pest or weed control at 125 g/ha,"wild oat (Avena fatua); Avena fatua, post-emergence, 125 g ai/ha, scale 0 to 100 (0 no effect, 100 complete control), read-out: Oat, Wild plant response rating",40%
same,"Plant response rating (scale of 0 to 100), Windgrass",[9]; 16 g ai/ha,50
same,"Plant response rating (scale of 0 to 100), Windgrass",[9]; 31 g ai/ha,60
same,"Plant response rating (scale of 0 to 100), Windgrass",[9]; 62 g ai/ha,70
same,pest or weed control at 125 g/ha,"[9]; Apera spica-venti, post-emergence, 125 g ai/ha, scale 0 to 100 (0 no effect, 100 complete control), read-out: Windgrass plant response rating",70%
same,"Plant response rating (scale of 0 to 100), Barley",[10]; 16 g ai/ha,40
same,"Plant response rating (scale of 0 to 100), Barley",[10]; 31 g ai/ha,40
same,plant injury at 62 g/ha,"[10]; Hordeum vulgare, post-emergence, 62 g ai/ha, scale 0 to 100 (0 no effect, 100 complete control), read-out: Barley plant response rating",50%
same,plant injury at 125 g/ha,"[10]; Hordeum vulgare, post-emergence, 125 g ai/ha, scale 0 to 100 (0 no effect, 100 complete control), read-out: Barley plant response rating",50%
same,Redstem plant response rating,[11]; 32 g ai/ha,30
same,Redstem plant response rating,[11]; 64 g ai/ha,30
same,Redstem plant response rating,[11]; 125 g ai/ha,50
same,Redstem plant response rating,[11]; 250 g ai/ha,60
same,"Plant response rating, Redstem",[11]; 16 g ai/ha,0
